Experimental data as given in patent US7485632B2, “Cephalosporins” (Nabriva Therapeutics Forschungs GmbH, priority 2002, dated 2009).
Converted amounts (≈) assume the structure as drawn.

Legend:
Format in all cases: cell-based
[1] = system: Staphylococcus aureus (MSSA); assay: Agar Dilution Test (NCCLS), MIC; conditions: against Staphylococcus aureus (MSSA)
[2] = system: Klebsiella; assay: Agar Dilution Test (NCCLS), MIC; conditions: against Klebsiella
[3] = system: Pseudomonas aeruginosa; assay: Antibacterial activity
[4] = system: Klebsiella pneumoniae; assay: Agar Dilution Test (NCCLS), MIC; conditions: against Klebsiella pneumoniae
[5] = system: Streptococcus pneumoniae; assay: Agar Dilution Test (NCCLS), MIC; conditions: against Streptococcus pneumoniae

For `CN(/N=C/C1=C(C(=O)O)N2C(=O)[C@@H](NC(=O)/C(=N\OCF)c3nsc(N)n3)C2SC1)C(=N)N[C@H]1CC[C@H](N)CC1` (stereo partly drawn) [Example 1, 3-{(E)[[1-trans-(4-Amino-cyclohexylamino)-iminomethyl]-methylhydrazono]methyl}-7-{[(5-amino-1,2,4-thiadiazol-3-yl)-(Z)-(fluoromethoxyimino)-acetyl]amino}-3-cephem-4-carboxylic acid], the MIC [1] was 0.05 to 0.2 mg/L (≈ 0.0837 to 0.335 µM), the MIC [2] was 0.0125 to 0.8 mg/L (≈ 0.0209 to 1.34 µM) and the “activity against Pseudomonas aeruginosa” value [3] was “shows activtiy”. The MIC [4] was roughly 0.0125 mg/L (≈ 0.0209 µM) and the MIC [5] was roughly 0.0125 mg/L (≈ 0.0209 µM).
